Laboratory results: patent publication US20030124104A1, “Probiotic compositions” (priority 2001, published 2003)
“And” between values parts separate entries of the source, which are not always exact repeats. Identical values can stand only once. “Also recorded” adds a separate entry of the source. Like-named read-outs stand apart in the source and are kept apart here.

Legend:
Format in all cases: cell-based
[1] = tested on: B. subtilis; experiment: MIC dilutions of bile acids, B. subtilis
[2] = tested on: K. pneumoniae; experiment: MIC dilutions of bile acids, K. pneumoniae
[3] = tested on: S. aureus; experiment: MIC dilutions of bile acids, S. aureus
[4] = tested on: P. mirabilils; experiment: MIC dilutions of bile acids, P. mirabilils
[5] = tested on: E. faecalis; experiment: MIC dilutions of bile acids, E. faecalis
[6] = tested on: E. Faecium; experiment: MIC dilutions of bile acids, E. Faecium
[7] = tested on: S. pneumoniae; experiment: MIC dilutions of bile acids, S. pneumoniae
[8] = tested on: B. clausii; experiment: MIC dilutions of bile acids, B. clausii
[9] = tested on: E. coli; experiment: MIC dilutions of bile acids, E. coli

Compound | MIC [1] | MIC [2] | MIC [3] | MIC [4] | MIC [5] | MIC [6] | MIC [7] | MIC [8] | MIC ([9]; E. coli) | MIC ([1]; Bacillus subtilis, read-out: MIC) | MIC ([2]; Klebsiella pneumoniae, read-out: MIC) | MIC ([3]; Staphylococcus aureus, read-out: MIC) | MIC ([4]; read-out: MIC) | MIC ([5]; Enterococcus faecalis, read-out: MIC) | MIC ([6]; Enterococcus faecium, read-out: MIC) | MIC ([7]; Streptococcus pneumoniae, read-out: MIC) | MIC ([8]; Shouchella clausii, read-out: MIC) | MIC ([9]; Escherichia coli)
C[C@H](CCC(=O)O)[C@H]1CC[C@H]2[C@@H]3CC[C@@H]4C[C@H](O)CC[C@]4(C)[C@H]3C[C@H](O)[C@]12C [DOC, deoxycholic acid] | 78 μg/mL and (0.2) mM | ≧20 μg/mL; also recorded: (≧0.05) mM | ≧20 000 μg/mL; also recorded: (≧51.2) mM | ≧20 μg/mL; also recorded: (≧0.05) mM | 625 μg/mL and (1.6) mM | 625 μg/mL and (1.6) mM | 20 μg/mL and (0.05) mM | 78 μg/mL and (0.2) mM | ≧20 μg/mL; also recorded: (≧0.05) mM |  |  |  |  |  |  |  |  | 
C[C@H](CCC(=O)NCCS(=O)(=O)O)[C@H]1CC[C@H]2[C@@H]3CC[C@@H]4C[C@H](O)CC[C@]4(C)[C@H]3C[C@H](O)[C@]12C [TDOC, tauro-deoxycholic acid] |  |  |  |  |  |  |  |  |  | 195 µg/mL and 400 µM | ≥ 25000 µg/mL and ≥ 51200 µM | ≥ 25000 µg/mL and ≥ 51200 µM | ≥ 25000 µg/mL and ≥ 51200 µM | 25000 µg/mL and 51200 µM | 3120 µg/mL and 6400 µM | 25000 µg/mL and 51200 µM | 24 µg/mL and ≤ 50 µM | ≥ 25000 µg/mL and ≥ 51200 µM
